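Five concentrations, 48 hours, 96-well plates. Abbreviation: GI50, concentration required for 50% inhibition of growth. TGI is the concentration that stops growth completely.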
How the values were obtained:
Experiment in all cases: NCI anticancer screen, dose series, 48 h
786-0 renal = tested on: 786-0 renal
A498 renal = tested on: A498 renal
A549 NSCLC = tested on: A549 NSCLC
ACHN renal = tested on: ACHN renal
BT-549 breast = tested on: BT-549 breast
CAKI-1 renal = tested on: CAKI-1 renal
CCRF-CEM leukemia = tested on: CCRF-CEM leukemia
COLO 205 colon = tested on: COLO 205 colon
DU-145 prostate = tested on: DU-145 prostate
EKVX NSCLC = tested on: EKVX NSCLC
HCC-2998 colon = tested on: HCC-2998 colon
HCT-116 colon = tested on: HCT-116 colon
HCT-15 colon = tested on: HCT-15 colon
HL-60(TB) leukemia = tested on: HL-60(TB) leukemia
HOP-62 NSCLC = tested on: HOP-62 NSCLC
HOP-92 NSCLC = tested on: HOP-92 NSCLC
HS 578T breast = tested on: HS 578T breast
HT29 colon = tested on: HT29 colon
IGROV1 ovarian = tested on: IGROV1 ovarian
K-562 leukemia = tested on: K-562 leukemia
KM12 colon = tested on: KM12 colon
LOX IMVI melanoma = tested on: LOX IMVI melanoma
M14 melanoma = tested on: M14 melanoma
MCF7 breast = tested on: MCF7 breast
MDA-MB-231 breast = tested on: MDA-MB-231 breast
MDA-MB-435 = tested on: MDA-MB-435
MOLT-4 leukemia = tested on: MOLT-4 leukemia
NCI-H23 lung = tested on: NCI-H23 lung
NCI-H460 lung = tested on: NCI-H460 lung
NCI-H522 lung = tested on: NCI-H522 lung
NCI/ADR-RES ovarian = tested on: NCI/ADR-RES ovarian
OVCAR-3 ovarian = tested on: OVCAR-3 ovarian
OVCAR-5 ovarian = tested on: OVCAR-5 ovarian
OVCAR-8 ovarian = tested on: OVCAR-8 ovarian
PC-3 prostate = tested on: PC-3 prostate
RPMI-8226 leukemia = tested on: RPMI-8226 leukemia
RXF 393 renal = tested on: RXF 393 renal
SF-268 CNS = tested on: SF-268 CNS
SF-295 CNS = tested on: SF-295 CNS
SF-539 CNS = tested on: SF-539 CNS
SK-MEL-2 melanoma = tested on: SK-MEL-2 melanoma
SK-MEL-28 melanoma = tested on: SK-MEL-28 melanoma
SK-MEL-5 melanoma = tested on: SK-MEL-5 melanoma
SK-OV-3 ovarian = tested on: SK-OV-3 ovarian
SN12C renal = tested on: SN12C renal
SNB-19 CNS = tested on: SNB-19 CNS
SW-620 colon = tested on: SW-620 colon
T-47D breast = tested on: T-47D breast
TK-10 renal = tested on: TK-10 renal
U251 CNS = tested on: U251 CNS
UACC-257 melanoma = tested on: UACC-257 melanoma
UACC-62 melanoma = tested on: UACC-62 melanoma
UO-31 renal = tested on: UO-31 renal

CCCCCC[C@@H](C)Nc1nc2ccccc2c2occc12
GI50 (786-0 renal): 14.3 µM
TGI (786-0 renal): 27.8 µM
GI50 (A498 renal): 18.6 µM
TGI (A498 renal): 35.1 µM
GI50 (A549 NSCLC): 19.4 µM
TGI (A549 NSCLC): 78.2 µM
GI50 (ACHN renal): 15.5 µM
TGI (ACHN renal): 28.8 µM
GI50 (BT-549 breast): 3.05 µM
TGI (BT-549 breast): 18.2 µM
GI50 (CAKI-1 renal): 13.6 µM
TGI (CAKI-1 renal): 32.1 µM
GI50 (CCRF-CEM leukemia): 12.2 µM
TGI (CCRF-CEM leukemia): 39.2 µM
GI50 (COLO 205 colon): 21.2 µM
TGI (COLO 205 colon): > 100 µM
GI50 (DU-145 prostate): 9.79 µM
TGI (DU-145 prostate): 21.5 µM
GI50 (EKVX NSCLC): 0.39 µM
TGI (EKVX NSCLC): 5 µM
GI50 (HCC-2998 colon): 9.35 µM
TGI (HCC-2998 colon): 21.5 µM
GI50 (HCT-116 colon): 4.87 µM
TGI (HCT-116 colon): 18.1 µM
GI50 (HCT-15 colon): 10.1 µM
TGI (HCT-15 colon): 21.6 µM
GI50 (HL-60(TB) leukemia): 22.4 µM
TGI (HL-60(TB) leukemia): 62.9 µM
GI50 (HOP-62 NSCLC): 14.8 µM
TGI (HOP-62 NSCLC): 28 µM
GI50 (HOP-92 NSCLC): 11.2 µM
TGI (HOP-92 NSCLC): 27.2 µM
GI50 (HS 578T breast): 16.5 µM
TGI (HS 578T breast): 40.5 µM
GI50 (HT29 colon): 14.5 µM
TGI (HT29 colon): 43.5 µM
GI50 (IGROV1 ovarian): 0.0871 µM
TGI (IGROV1 ovarian): 11.5 µM
GI50 (K-562 leukemia): 19.9 µM
TGI (K-562 leukemia): > 100 µM
GI50 (KM12 colon): 14 µM
TGI (KM12 colon): 34.4 µM
GI50 (LOX IMVI melanoma): 13.9 µM
TGI (LOX IMVI melanoma): 26.9 µM
GI50 (M14 melanoma): 11.2 µM
TGI (M14 melanoma): 23.2 µM
GI50 (MCF7 breast): 10.5 µM
TGI (MCF7 breast): > 100 µM
GI50 (MDA-MB-231 breast): 10.8 µM
TGI (MDA-MB-231 breast): 22.7 µM
GI50 (MDA-MB-435): 15.5 µM
TGI (MDA-MB-435): 40.2 µM
GI50 (MOLT-4 leukemia): 20.9 µM
TGI (MOLT-4 leukemia): > 100 µM
GI50 (NCI-H23 lung): 1 µM
TGI (NCI-H23 lung): 6.97 µM
GI50 (NCI-H460 lung): 4.19 µM
TGI (NCI-H460 lung): > 100 µM
GI50 (NCI-H522 lung): 1.83 µM
TGI (NCI-H522 lung): 13.3 µM
GI50 (NCI/ADR-RES ovarian): 10.7 µM
TGI (NCI/ADR-RES ovarian): 22.6 µM
GI50 (OVCAR-3 ovarian): 13.5 µM
TGI (OVCAR-3 ovarian): 38.2 µM
GI50 (OVCAR-5 ovarian): 14 µM
TGI (OVCAR-5 ovarian): 27.4 µM
GI50 (OVCAR-8 ovarian): 20.7 µM
TGI (OVCAR-8 ovarian): > 100 µM
GI50 (PC-3 prostate): 22.9 µM
TGI (PC-3 prostate): 71.6 µM
GI50 (RPMI-8226 leukemia): 1.47 µM
TGI (RPMI-8226 leukemia): > 100 µM
GI50 (RXF 393 renal): 13.9 µM
TGI (RXF 393 renal): 34.4 µM
GI50 (SF-268 CNS): 14.7 µM
TGI (SF-268 CNS): 38.7 µM
GI50 (SF-295 CNS): 1.99 µM
TGI (SF-295 CNS): 19.5 µM
GI50 (SF-539 CNS): 10.5 µM
TGI (SF-539 CNS): 22.5 µM
GI50 (SK-MEL-2 melanoma): 1.32 µM
TGI (SK-MEL-2 melanoma): 20.5 µM
GI50 (SK-MEL-28 melanoma): 18.5 µM
TGI (SK-MEL-28 melanoma): 36.5 µM
GI50 (SK-MEL-5 melanoma): 2.89 µM
TGI (SK-MEL-5 melanoma): 18 µM
GI50 (SK-OV-3 ovarian): 15.7 µM
TGI (SK-OV-3 ovarian): 32.2 µM
GI50 (SN12C renal): 12.8 µM
TGI (SN12C renal): 25.4 µM
GI50 (SNB-19 CNS): 17.7 µM
TGI (SNB-19 CNS): 50.1 µM
GI50 (SW-620 colon): 11.2 µM
TGI (SW-620 colon): 26.5 µM
GI50 (T-47D breast): 7.24 µM
TGI (T-47D breast): 23.2 µM
GI50 (TK-10 renal): 10 µM
TGI (TK-10 renal): 23.6 µM
GI50 (U251 CNS): 11.7 µM
TGI (U251 CNS): 23.9 µM
GI50 (UACC-257 melanoma): 4.67 µM
TGI (UACC-257 melanoma): 24 µM
GI50 (UACC-62 melanoma): 13.2 µM
TGI (UACC-62 melanoma): 25.9 µM
GI50 (UO-31 renal): 2.05 µM
TGI (UO-31 renal): 17.2 µM

Reference: PubChem BioAssay (NCI)
